Test results as given in publication PMC3705364, “Biochemical and Electrophysiological Characterization of Two Sea Anemone Type 1 Potassium Toxins from a Geographically Distant Population of Bunodosoma caissarum” (Marine Drugs, 2013).
Where a SMILES comes first, the peptide text is derived from it. Bridges are numbered along the chain shown (N, C = ends).

How the values were obtained:
[1] = target: T1, rKV1.6 (Rattus norvegicus, UniProt P17659); assay: Two-electrode voltage-clamp, X. laevis oocytes expressing rKV1.6; type: cell-based; conditions: mean ± standard error
T1 construct: expressed in transfected cells; host or cells: Xenopus laevis oocytes injected with cRNA
Experimental: (§1) Stage V–VI of X. laevis oocytes were harvested by partial ovariectomy under anesthesia (3-aminobenzoic acid ethyl ester methanesulfonate salt, 0.5 g/L from Sigma-Aldrich Co., Saint Louis, MO, USA). The oocytes were defolliculated for 2 h by treatment with 2 mg/mL collagenase (Sigma-Aldrich Co., Saint Louis, MO, USA) in Ca^2+ free ND96 solution (in mM: 96 NaCl; 2 KCl; 1 MgCl2; 5 HEPES adjusted pH 7.4). For the expression of KV channels (KV1.1–KV1.6, KV2.1, KV3.1, KV4.2, KV4.3, hERG and the insect channel Shaker IR), the linearized plasmids were transcribed using the T7 or SP6 mMessage-mMachine transcription kit (Ambion, Austin, TX, USA). Oocytes were injected with 50 nL of cRNA at a concentration of 1 ng/nL using a microinjector (Drummond Scientific, Broomall, PA, USA). The oocytes were maintained in a ND96 solution (in mM: 96 NaCl, 2 KCl, 1.8 CaCl2, 2 MgCl2 and 5 HEPES; adjusted pH 7.4), supplemented with 50 µg/mL gentamicin sulfate.
(§2) Two-electrode voltage-clamp recordings were performed at room temperature (18–22 °C) using a Geneclamp 500 amplifier (Molecular Devices, Sunnyvale, CA, USA) controlled by a pClamp data acquisition system (Axon Instruments, Union City, CA, USA). Whole-cell currents from oocytes were recorded from 1 to 3 days after injection. Bath solution was the same ND96 solution described above. Voltage and current electrodes were filled with 3 M KCl. Resistances of both electrodes were kept between 0.8 and 1.0 ΩM. The elicited currents were filtered at 500 Hz using a four-pole lowpass Bessel filter. Leak subtraction was performed using a −P/4 protocol. KV1.1–KV1.6 and Shaker IR currents were evoked by 500 ms depolarizations to 0 mV, followed by a 500 ms pulse to −50 mV, from a holding potential of −90 mV. Current traces of hERG channels were elicited by applying a +40 mV prepulse for 2 s, followed by a step to −120 mV for 2 s. KV3.1, KV 4.2 and KV4.3 currents were elicited by 500 ms pulses to +20 mV from a holding potential of −90 mV. To assess the concentration-response relationships, data were fitted with the Hill equation: y = 100/[1 + (EC50/[toxin])h] (1) where y is the amplitude of the toxin-induced effect, EC50 is the toxin concentration at half maximal efficacy, [toxin] is the toxin concentration and h is the Hill coefficient. In order to investigate the current-voltage relationship, current traces were evoked by 10 mV depolarization steps from a holding potential of −90 mV. […]
(§3) Comparison of two sample means was made using a paired Student’s t test (p < 0.05). […] All data were analyzed using Clampfit 10.3 (Molecular Devices, Sunnyvale, CA, USA) and Origin 7.5 software (Origin Lab., Northampton, MA, USA).

[2] = target: T2, rKV1.1 (Rattus norvegicus, UniProt P10499); assay: Two-electrode voltage-clamp, X. laevis oocytes expressing rKV1.1; type: cell-based; conditions: mean ± standard error
T2 construct: expressed in transfected cells; host or cells: Xenopus laevis oocytes injected with cRNA
Experimental: as §1, §2, §3

[3] = target: T3, hKV1.3 (Homo sapiens, UniProt P22001); assay: Two-electrode voltage-clamp, X. laevis oocytes expressing hKV1.3; type: cell-based; parameters: expressed in transfected cells; host or cells: Xenopus laevis oocytes injected with cRNA
Experimental: as §1, §2, §3

[4] = test system: KV1.1–KV1.6, KV2.1, KV3.1, KV4.2, KV4.3, hERG and Shaker IR; assay: Electrophysiological screening on 12 cloned KV channel isoforms in X. laevis oocytes; type: cell-based, rat, human, insect
Experimental: The pharmacological profile of BcsTx-1 and -2 were determined on a wide range of twelve KV channels (rKV1.1, rKV1.2, hKV1.3, rKV1.4, rKV1.5, rKV1.6, rKV2.1, rKV3.1, rKV4.2, rKV4.3, hERG and the insect channel Shaker IR; r: rat and h: human). Channels were expressed in X. laevis oocytes, and their currents were recorded by using two-electrode voltage-clamp technique. BcsTx1 (0.5 µM) inhibited rKv1.1, rKv1.2, rKv1.3, rKv1.6 and Shaker IR channels with 44% ± 2%, 100%, 100%, 88% ± 3% and 64% ± 4%, respectively (Figure 6). […] Type 1 toxins, such as BgK and ShK, have been extensively characterized. […] Some of the other type 1 toxins were indirectly assayed by competitive inhibition of the binding of ^125I-dendrotoxins, allowing the conclusion that they will show activity on KV1.1, KV1.2 and/or KV1.6, since dendrotoxins only block the current of these KV channels. […] Thus, it is worth mentioning that our work represents the first electrophysiological characterization of type 1 sea anemone toxin activity on cloned Shaker IR insect channel.
as §1
Two-electrode voltage-clamp recordings were performed at room temperature (18–22 °C) using a Geneclamp 500 amplifier (Molecular Devices, Sunnyvale, CA, USA) controlled by a pClamp data acquisition system (Axon Instruments, Union City, CA, USA). Whole-cell currents from oocytes were recorded from 1 to 3 days after injection. Bath solution was the same ND96 solution described above. Voltage and current electrodes were filled with 3 M KCl. Resistances of both electrodes were kept between 0.8 and 1.0 ΩM. The elicited currents were filtered at 500 Hz using a four-pole lowpass Bessel filter. Leak subtraction was performed using a −P/4 protocol. KV1.1–KV1.6 and Shaker IR currents were evoked by 500 ms depolarizations to 0 mV, followed by a 500 ms pulse to −50 mV, from a holding potential of −90 mV. Current traces of hERG channels were elicited by applying a +40 mV prepulse for 2 s, followed by a step to −120 mV for 2 s. KV3.1, KV 4.2 and KV4.3 currents were elicited by 500 ms pulses to +20 mV from a holding potential of −90 mV. To assess the concentration-response relationships, data were fitted with the Hill equation: y = 100/[1 + (EC50/[toxin])h] (1) where y is the amplitude of the toxin-induced effect, EC50 is the toxin concentration at half maximal efficacy, [toxin] is the toxin concentration and h is the Hill coefficient. In order to investigate the current-voltage relationship, current traces were evoked by 10 mV depolarization steps from a holding potential of −90 mV. The activation curves were fitted with a Boltzmann relationship of the form: 1/(1 + e^[−(V − V^1/2)/^S^]) (2) where V1/2 is the voltage for half-maximal activation and s is the slope factor. The activation kinetics were obtained by mono-exponential fits to the raw current traces.

[5] = target: T4, Shaker IR (Drosophila melanogaster, UniProt P08510, DEL6-46); assay: Two-electrode voltage-clamp, X. laevis oocytes expressing Shaker IR; type: cell-based, insect; conditions: mean ± standard error
T4 construct: expressed in transfected cells; host or cells: Xenopus laevis oocytes injected with cRNA
Experimental: as §1, §2, §3

[6] = target: T5, rKV1.2 (Rattus norvegicus, UniProt P63142); assay: Two-electrode voltage-clamp, X. laevis oocytes expressing rKV1.2; type: cell-based
T5 construct: expressed in transfected cells; host or cells: Xenopus laevis oocytes injected with cRNA
Experimental: as §1, §2, §3

[7] = test system: KV1.2; conditions: expressed in Xenopus oocytes; cited from earlier work
Experimental: The pharmacological profile of BcsTx-1 and -2 were determined on a wide range of twelve KV channels (rKV1.1, rKV1.2, hKV1.3, rKV1.4, rKV1.5, rKV1.6, rKV2.1, rKV3.1, rKV4.2, rKV4.3, hERG and the insect channel Shaker IR; r: rat and h: human). Channels were expressed in X. laevis oocytes, and their currents were recorded by using two-electrode voltage-clamp technique. BcsTx1 (0.5 µM) inh ... || In order to characterize the potency and selectivity profile, concentration-response curves were constructed for BcsTx1. […] A concentration-response curve was also constructed to determine the concentration at which BcsTx2 blocked half of the channels.

[8] = target: rKV1.1 (rat) (UniProt P10499)
[9] = target: Shaker IR (insect) (UniProt P08510)
[10] = target: T3, hKV1.3
[11] = target: rKV1.6 (rat) (UniProt P17659)
[12] = target: rKV1.2 (rat) (UniProt P63142)
[13] = target: rKV1.1 (rat) (UniProt P10499); remark: listed apart in the source
[14] = target: Shaker IR (insect) (UniProt P08510); remark: listed apart in the source
[15] = target: T3, hKV1.3; remark: listed apart in the source
[16] = target: rKV1.6 (rat) (UniProt P17659); remark: listed apart in the source
[17] = target: rKV1.2 (rat) (UniProt P63142); remark: listed apart in the source
[18] = TEVC, 18–22 °C, ND96 pH 7.4, 500 ms depolarizations to 0 mV from −90 mV, Hill fit, n ≥ 3
[19] = TEVC, 18–22 °C, ND96 pH 7.4, 500 ms depolarizations to 0 mV from −90 mV, Hill fit, mean ± standard error, n ≥ 3

T3 sequence (P22001 whole entry): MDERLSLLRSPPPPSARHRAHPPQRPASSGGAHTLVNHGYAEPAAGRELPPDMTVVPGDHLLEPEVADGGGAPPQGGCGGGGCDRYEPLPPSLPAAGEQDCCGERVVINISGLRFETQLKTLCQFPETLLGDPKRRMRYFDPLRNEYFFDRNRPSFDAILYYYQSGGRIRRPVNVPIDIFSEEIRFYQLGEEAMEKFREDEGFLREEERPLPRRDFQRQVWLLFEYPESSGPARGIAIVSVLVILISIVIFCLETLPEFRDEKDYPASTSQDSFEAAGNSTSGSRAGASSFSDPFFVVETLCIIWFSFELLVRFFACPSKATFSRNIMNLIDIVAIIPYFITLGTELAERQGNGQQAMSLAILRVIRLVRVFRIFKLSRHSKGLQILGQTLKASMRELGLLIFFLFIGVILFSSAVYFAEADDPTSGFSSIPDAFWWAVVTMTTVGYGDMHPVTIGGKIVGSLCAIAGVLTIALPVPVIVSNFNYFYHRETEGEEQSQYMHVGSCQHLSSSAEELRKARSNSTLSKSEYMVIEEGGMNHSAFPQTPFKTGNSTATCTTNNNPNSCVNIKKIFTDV
T4 sequence (P08510 with tags, fused parts or gaps DEL6-46): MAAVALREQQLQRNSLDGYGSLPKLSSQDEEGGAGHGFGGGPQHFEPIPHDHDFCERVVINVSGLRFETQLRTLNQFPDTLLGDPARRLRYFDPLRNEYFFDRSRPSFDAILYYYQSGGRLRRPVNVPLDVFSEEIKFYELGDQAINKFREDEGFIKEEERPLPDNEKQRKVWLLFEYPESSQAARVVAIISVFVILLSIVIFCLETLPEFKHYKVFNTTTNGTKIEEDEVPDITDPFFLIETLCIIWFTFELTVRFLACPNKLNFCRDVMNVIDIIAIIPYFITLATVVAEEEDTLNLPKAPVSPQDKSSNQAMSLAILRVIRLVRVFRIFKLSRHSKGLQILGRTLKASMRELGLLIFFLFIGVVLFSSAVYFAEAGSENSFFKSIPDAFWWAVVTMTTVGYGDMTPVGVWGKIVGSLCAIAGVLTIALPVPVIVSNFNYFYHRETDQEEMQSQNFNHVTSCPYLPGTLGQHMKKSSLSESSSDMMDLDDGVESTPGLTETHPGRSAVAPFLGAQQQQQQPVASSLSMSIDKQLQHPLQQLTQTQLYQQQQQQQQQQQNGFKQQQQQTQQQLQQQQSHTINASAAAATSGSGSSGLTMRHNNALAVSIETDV
Sequence of Shaker IR (insect) (P08510 whole entry): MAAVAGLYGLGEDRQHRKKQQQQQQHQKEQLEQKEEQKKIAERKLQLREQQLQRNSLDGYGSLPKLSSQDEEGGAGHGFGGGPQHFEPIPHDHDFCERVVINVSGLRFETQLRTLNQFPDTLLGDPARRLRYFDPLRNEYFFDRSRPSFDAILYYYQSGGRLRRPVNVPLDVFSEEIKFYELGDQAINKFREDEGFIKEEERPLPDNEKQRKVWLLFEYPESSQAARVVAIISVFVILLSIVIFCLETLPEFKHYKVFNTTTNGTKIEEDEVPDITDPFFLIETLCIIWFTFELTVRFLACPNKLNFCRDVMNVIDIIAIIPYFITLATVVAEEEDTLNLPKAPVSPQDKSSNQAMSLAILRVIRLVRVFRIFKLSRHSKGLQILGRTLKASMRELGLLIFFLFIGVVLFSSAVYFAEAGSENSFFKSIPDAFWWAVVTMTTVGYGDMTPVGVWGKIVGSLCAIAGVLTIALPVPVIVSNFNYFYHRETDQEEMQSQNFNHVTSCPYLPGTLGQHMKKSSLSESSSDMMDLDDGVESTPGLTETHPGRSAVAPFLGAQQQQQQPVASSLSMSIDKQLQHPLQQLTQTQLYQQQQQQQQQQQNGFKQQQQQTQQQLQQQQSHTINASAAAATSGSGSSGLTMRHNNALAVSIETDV
T1 sequence (P17659 whole entry): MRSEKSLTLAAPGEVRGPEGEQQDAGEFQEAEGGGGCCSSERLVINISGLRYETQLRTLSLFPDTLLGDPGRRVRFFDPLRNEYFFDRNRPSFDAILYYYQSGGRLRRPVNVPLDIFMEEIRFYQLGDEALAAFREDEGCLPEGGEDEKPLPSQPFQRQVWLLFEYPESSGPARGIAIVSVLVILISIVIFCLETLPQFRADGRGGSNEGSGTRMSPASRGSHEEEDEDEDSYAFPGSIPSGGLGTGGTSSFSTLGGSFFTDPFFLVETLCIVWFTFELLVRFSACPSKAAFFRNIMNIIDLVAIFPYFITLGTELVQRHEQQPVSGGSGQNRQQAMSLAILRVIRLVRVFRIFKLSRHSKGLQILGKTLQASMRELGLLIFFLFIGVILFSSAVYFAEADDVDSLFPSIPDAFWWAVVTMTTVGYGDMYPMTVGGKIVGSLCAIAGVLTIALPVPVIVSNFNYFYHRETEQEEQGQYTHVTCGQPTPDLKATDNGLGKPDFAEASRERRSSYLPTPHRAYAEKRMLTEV
Sequence of rKV1.6 (rat) (P17659 whole entry): as above
T2 sequence (P10499 whole entry): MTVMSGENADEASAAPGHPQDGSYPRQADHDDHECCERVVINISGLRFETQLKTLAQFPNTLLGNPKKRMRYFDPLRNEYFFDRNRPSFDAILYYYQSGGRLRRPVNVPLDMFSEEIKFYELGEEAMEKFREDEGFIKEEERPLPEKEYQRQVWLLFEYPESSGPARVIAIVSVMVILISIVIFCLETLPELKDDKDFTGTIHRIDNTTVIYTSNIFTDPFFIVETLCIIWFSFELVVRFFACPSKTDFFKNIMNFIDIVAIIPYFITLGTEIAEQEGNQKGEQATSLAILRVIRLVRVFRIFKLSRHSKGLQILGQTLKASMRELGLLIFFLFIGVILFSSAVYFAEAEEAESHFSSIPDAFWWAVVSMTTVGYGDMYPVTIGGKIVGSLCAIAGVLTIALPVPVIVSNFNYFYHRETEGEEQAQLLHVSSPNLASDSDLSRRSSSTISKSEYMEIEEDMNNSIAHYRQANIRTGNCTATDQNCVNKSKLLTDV
Sequence of rKV1.1 (rat) (P10499 whole entry): as above
T5 sequence (P63142 whole entry): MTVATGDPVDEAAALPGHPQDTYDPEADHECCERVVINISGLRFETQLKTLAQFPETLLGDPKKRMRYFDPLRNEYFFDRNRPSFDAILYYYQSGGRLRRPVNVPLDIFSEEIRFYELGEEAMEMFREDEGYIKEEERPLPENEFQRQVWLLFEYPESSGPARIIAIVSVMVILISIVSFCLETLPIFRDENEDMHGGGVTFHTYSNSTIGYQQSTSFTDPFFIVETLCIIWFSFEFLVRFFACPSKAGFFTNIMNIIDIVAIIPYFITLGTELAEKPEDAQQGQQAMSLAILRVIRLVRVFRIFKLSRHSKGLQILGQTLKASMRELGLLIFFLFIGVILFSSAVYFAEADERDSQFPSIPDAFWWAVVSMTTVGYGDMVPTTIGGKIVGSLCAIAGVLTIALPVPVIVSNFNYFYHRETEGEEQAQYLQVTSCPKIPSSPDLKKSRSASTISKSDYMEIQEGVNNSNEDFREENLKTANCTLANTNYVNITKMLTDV
Sequence of rKV1.2 (rat) (P63142 whole entry): as above

CC[C@H](C)[C@@H]1NC(=O)[C@@H](NC(=O)[C@H](C)N)CSSC[C@@H](C(=O)N[C@@H](Cc2c[nH]cn2)C(=O)O)NC(=O)[C@H](CC(C)C)NC(=O)CNC(=O)[C@@H]2CSSC[C@@H]3NC(=O)[C@H](CO)NC(=O)CNC(=O)CNC(=O)[C@H](CCCCN)NC(=O)[C@H](CCCCN)NC(=O)[C@H](C(C)C)NC(=O)[C@H](Cc4c[nH]cn4)NC(=O)[C@H](CCCCN)NC(=O)[C@H](CSSC[C@H](NC(=O)[C@H](CC(N)=O)NC(=O)[C@H]([C@@H](C)CC)NC(=O)[C@H](CCCNC(=N)N)NC(=O)[C@H](Cc4ccc(O)cc4)NC(=O)[C@H](CCCCN)NC(=O)[C@H](CCC(N)=O)NC(=O)[C@H](CO)NC(=O)[C@H](CC(N)=O)NC(=O)[C@H](CCCCN)NC3=O)C(=O)N[C@@H](C)C(=O)N[C@@H](CCCCN)C(=O)N[C@@H]([C@@H](C)O)C(=O)N2)NC(=O)[C@H]([C@@H](C)O)NC(=O)CNC(=O)[C@H]([C@@H](C)O)NC(=O)[C@@H]2CCCN2C(=O)[C@H](Cc2ccccc2)NC(=O)[C@H](CCCNC(=N)N)NC(=O)[C@H](CC(=O)O)NC1=O [BcsTx1] (H-ACIDRFPTGTCKHVKKGGSCKNSQKYRINCAKTCGLCH-OH; disulfide 2-37, 11-30, 20-34)
inhibition at 0.5 µM ([1]; 0.5 µM, n ≥ 3, read-out: inhibition of rKV1.6 current): 88%
IC50 [1, 18]: 1.31 ± 0.2 nM
inhibition at 0.5 µM ([2]; 0.5 µM, n ≥ 3, read-out: inhibition of rKV1.1 current): 44%
IC50 [2, 18]: 405 ± 20.6 nM
inhibition at 0.5 µM ([3]; 0.5 µM, n ≥ 3, read-out: inhibition of KV1.3 current): 100%
IC50 [3, 19]: 74.1 ± 20.2 nM
selectivity among KV channels (in words) ([4]; 0.5 µM, 12 KV isoforms): selectively blocks KV1.x channels
potency class on KV channels (in words) ([4]; summary of IC50 values, compared with BgK and type 2 toxins): within the nanomolar range
affinity/potency order among KV channels (in words) ([4]; summary of the electrophysiological characterization): high affinity for rKv1.2 over rKv1.6, hKv1.3, Shaker IR and rKv1.1
inhibition at 0.5 µM ([5]; 0.5 µM, n ≥ 3, read-out: inhibition of Shaker IR current): 64%
IC50 [5, 18]: 248 ± 96 nM
inhibition at 0.5 µM ([6]; 0.5 µM, n ≥ 3, read-out: inhibition of rKV1.2 current): 100%
IC50 [6, 19]: 0.03 ± 0.006 nM

AsKs: type 1 toxin from Anemonia viridis / Anemonia sulcata (Swiss-Prot Q9TWG1) (ACKDNFAAATCKHVKENKNCGSQKYATNCAKTCGKC; UniProt Q9TWG1 1-36, looked up)
block of KV1.2 current (in words) [7]: blocker of KV1.2 current

BcsTx1 (from UniProt C0HJC2 1-38) (peptide)
percent inhibition of the channel's current by 0.5 µM BcsTx1, two-electrode voltage clamp on X. laevis oocytes [8]: 44%
percent inhibition of the channel's current by 0.5 µM BcsTx1, two-electrode voltage clamp on X. laevis oocytes [9]: 64%
percent inhibition of the channel's current by 0.5 µM BcsTx1, two-electrode voltage clamp on X. laevis oocytes [10]: 100%
percent inhibition of the channel's current by 0.5 µM BcsTx1, two-electrode voltage clamp on X. laevis oocytes [11]: 88%
percent inhibition of the channel's current by 0.5 µM BcsTx1, two-electrode voltage clamp on X. laevis oocytes [12]: 100%
IC50 of block of the channel's K+ current, two-electrode voltage clamp on X. laevis oocytes, concentration-response curve [13]: 405 nM
IC50 of block of the channel's K+ current, two-electrode voltage clamp on X. laevis oocytes, concentration-response curve [14]: 248 nM
IC50 of block of the channel's K+ current, two-electrode voltage clamp on X. laevis oocytes, concentration-response curve [15]: 74.1 nM
IC50 of block of the channel's K+ current, two-electrode voltage clamp on X. laevis oocytes, concentration-response curve [16]: 1.31 nM
IC50 of block of the channel's K+ current, two-electrode voltage clamp on X. laevis oocytes, concentration-response curve [17]: 0.03 nM
